Data as given in ChEMBL document CHEMBL1155783, “Novel sterically hindered cannabinoid CB1 receptor ligands” (Bioorg Med Chem, 2008).
Active and inactive are the calls of the source. The rule behind the calls is not given here.

Key:
[1] = target: Cannabinoid receptor 2 (Homo sapiens, UniProt P34972); assay: Displacement of [3H]CP-55940 from human recombinant CB2 receptor expressed in HEK cells; format: cell-based, HEK293
[2] = target: Cannabinoid receptor 1 (Homo sapiens, UniProt P21554); assay: biochemical; format: cell-based, HEK293
Description: Displacement of [3H]CP-55940 from human recombinant CB1 receptor expressed in HEK cells

[3] = organism: Homo sapiens; assay: Selectivity of Ki for human recombinant CB1 receptor over Ki for human recombinant CB2 receptor
[4] = target: Cannabinoid receptor 1 (Mus musculus) (UniProt P47746); assay: Agonist activity at mouse CB1 receptor in N18TG2 cells assessed as inhibition of forskolin-stimulated cAMP formation at 1 uM in presence of 0.1 uM WIN-55212-2
Cannabinoid receptor 1 (Mus musculus), sequence (P47746 whole entry, looked up): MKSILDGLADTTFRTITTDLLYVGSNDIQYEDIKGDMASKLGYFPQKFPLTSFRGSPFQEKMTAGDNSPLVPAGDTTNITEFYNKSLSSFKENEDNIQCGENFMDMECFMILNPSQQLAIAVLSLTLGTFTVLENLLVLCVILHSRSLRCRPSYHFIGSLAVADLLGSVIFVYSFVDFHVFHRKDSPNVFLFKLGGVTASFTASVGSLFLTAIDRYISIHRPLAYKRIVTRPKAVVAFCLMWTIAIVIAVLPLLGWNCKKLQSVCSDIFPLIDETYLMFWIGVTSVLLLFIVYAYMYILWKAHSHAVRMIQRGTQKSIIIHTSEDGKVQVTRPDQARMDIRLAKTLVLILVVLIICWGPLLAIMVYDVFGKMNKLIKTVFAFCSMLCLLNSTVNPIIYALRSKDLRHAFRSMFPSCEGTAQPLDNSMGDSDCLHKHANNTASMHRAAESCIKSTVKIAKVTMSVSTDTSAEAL

Cannabinoid receptor 1, sequence (P21554 whole entry): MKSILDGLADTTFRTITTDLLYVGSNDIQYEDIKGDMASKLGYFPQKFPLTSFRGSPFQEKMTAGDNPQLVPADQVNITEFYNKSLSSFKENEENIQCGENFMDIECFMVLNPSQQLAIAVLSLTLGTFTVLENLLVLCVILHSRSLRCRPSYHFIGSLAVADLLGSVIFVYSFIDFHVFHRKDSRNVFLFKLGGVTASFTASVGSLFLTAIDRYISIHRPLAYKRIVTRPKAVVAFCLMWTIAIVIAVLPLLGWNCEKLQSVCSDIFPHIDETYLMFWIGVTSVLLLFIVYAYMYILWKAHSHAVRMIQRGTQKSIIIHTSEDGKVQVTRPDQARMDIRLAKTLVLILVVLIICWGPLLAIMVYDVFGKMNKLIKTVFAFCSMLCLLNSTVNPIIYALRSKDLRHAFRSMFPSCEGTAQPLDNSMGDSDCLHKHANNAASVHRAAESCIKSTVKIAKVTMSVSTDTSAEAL
Cannabinoid receptor 2, sequence (P34972 whole entry): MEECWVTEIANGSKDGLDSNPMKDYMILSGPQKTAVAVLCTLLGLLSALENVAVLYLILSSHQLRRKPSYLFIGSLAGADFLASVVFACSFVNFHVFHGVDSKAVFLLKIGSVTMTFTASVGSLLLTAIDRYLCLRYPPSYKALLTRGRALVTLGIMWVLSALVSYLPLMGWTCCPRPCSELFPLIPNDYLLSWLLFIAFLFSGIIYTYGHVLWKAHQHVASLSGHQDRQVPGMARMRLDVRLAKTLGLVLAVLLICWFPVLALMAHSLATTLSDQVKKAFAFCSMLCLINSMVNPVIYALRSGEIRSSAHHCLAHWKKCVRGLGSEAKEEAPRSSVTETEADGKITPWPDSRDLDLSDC

Row | SMILES | Ki [1] [nM] | Ki [2] [nM] | Ratio Ki [3] | Activity [4]
1 | Nc1ccc(C(C(=O)NCCC(c2ccccc2)c2ccccc2)c2ccccc2)cc1 (stereo unspecified) | 1200 | 900 |  | 
2 | O=C(NCCC(c1ccccc1)c1ccccc1)C(Cl)(c1ccccc1)c1ccccc1 | 1400 | 280 |  | 
3 | O=C(NCCC(c1ccccc1)c1ccccc1)C(c1ccccc1)c1ccc([N+](=O)[O-])cc1 (stereo unspecified) | 790 | 560 |  | 
4 | O=C(NCCC(c1ccccc1)c1ccccc1)C(c1ccccc1)c1ccccc1 | 7900 | 58 | 140 | inactive
5 | O=C(Cc1ccc(Br)cc1)NCCC(c1ccccc1)c1ccccc1 | 1300 | 800 |  | 
6 | O=C(NCCCc1ccccc1)C(c1ccccc1)c1ccccc1 | > 7900 | 3400 |  | 
7 | O=C(NCCCc1ccccc1)C(c1ccccc1)c1ccc(Cl)cc1 (stereo unspecified) | 2400 | 2200 |  | 
8 | O=C(NCCC(c1ccccc1)c1ccccc1)C(O)(c1ccccc1)c1ccccc1 | 2300 | 2200 |  | 
9 | Cc1ccc(C(C(=O)NCCC(c2ccccc2)c2ccccc2)c2ccccc2)cc1 (stereo unspecified) | 650 | 560 |  | 
10 | CC(C(=O)NCCC(c1ccccc1)c1ccccc1)(c1ccccc1)c1ccccc1 | 290 | 560 |  | 
11 | O=C(NCCC(c1ccccc1)c1ccccc1)C(c1ccccc1)c1ccc(O)cc1 (stereo unspecified) | 1100 | 560 |  | 
12 | O=C(NCCC(c1ccccc1)c1ccccc1)C(c1ccccc1)c1ccc(Br)cc1 (stereo unspecified) | > 7900 | 220 |  | 
13 | O=C(Cc1ccccc1)NCCC(c1ccccc1)c1ccccc1 | > 7900 | 560 |  | 
14 | O=C(Cc1ccc(Cl)cc1)NCCC(c1ccccc1)c1ccccc1 | 2400 | 1600 |  | 
15 | O=C(NCCCc1ccccc1)C(c1ccccc1)c1ccc(Br)cc1 (stereo unspecified) | 1800 | 1900 |  | 
16 | O=C(NCCC(c1ccccc1)c1ccccc1)C(c1ccccc1)c1ccc(Cl)cc1 (stereo unspecified) | > 7900 | 560 |  | 
17 | COc1ccc(C(C(=O)NCCC(c2ccccc2)c2ccccc2)c2ccccc2)cc1 (stereo unspecified) | 790 | 560 |  | 
